# Like-named read-outs stand apart in the source and are kept apart here.
# How the values were obtained:
# kochia = assay: Test C pre-/postemergence herbicide test; format: in vivo, Kochia scoparia
# Procedure, shortened: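 Emerged plants at the 1- to 4-leaf stage (2–18 cm), or freshly planted seeds, received test chemicals in a non-phytotoxic solvent mixture with surfactant. Response was visually scored against controls after 12 to 14 days in the greenhouse, on a 0 (no effect) to 100 (complete control) scale.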
# Italian ryegrass = assay: Test C postemergence herbicide test; format: in vivo, Lolium multiflorum
# Procedure, shortened: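 Injury scored visually against controls on a 0 (no effect) to 100 (complete control) scale, 12 to 14 days after treatment in greenhouse. Flooded paddy plants treated at 2-leaf stage; postemergence plants at 1- to 4-leaf stage, 2 to 18 cm tall.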
# morningglory = assay: Test A pre-/postemergence herbicide test; format: in vivo, Ipomoea spp.; settings: for pest or weed control at 500 g/ha / pest or weed control at 2000 g/ha: Ipomoea, 240 h
# Procedure, shortened: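 Both application timings were run together: directed soil spray over freshly planted seeds in sandy loam, and runoff spray onto 2–10 cm seedlings. Evaluation after ~10 days in greenhouse used a 0–100 visual scale versus untreated controls.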
# [1] = Postemergence, 250 g ai/ha, scale 0 to 100, 0 no effect, 100 complete control
# [2] = postemergence, 125 g ai/ha, scale 0 to 100
# [3] = postemergence, 62 g ai/ha, scale 0 to 100
# [4] = Postemergence, 500 g ai/ha, 0 to 100 scale, 0 no effect, 100 complete control
# [5] = Postemergence, 2000 g ai/ha, 0 to 100 scale, 0 no effect, 100 complete control
# [6] = Preemergence, 2000 g ai/ha, visual rating, 0 to 100 scale (0 no effect, 100 complete control)
# [7] = preemergence, 500 g ai/ha, visual injury, 0 to 100 scale (0 no effect, 100 complete control)
# [8] = 62 g ai/ha, preemergence, scale 0 to 100
# [9] = 125 g ai/ha, scale 0 (no effect) to 100 (complete control), visual, 12 to 14 days, preemergence
# [10] = 250 g ai/ha, scale 0-100, preemergence
# [11] = Preemergence, 500 g ai/ha, scale 0 to 100, 0 no effect, 100 complete control
# [12] = post-emergence, Postemergence, 500 g ai/ha, 0 to 100 scale, 0 no effect, 100 complete control, read-out: Plant response rating, Morningglory
# [13] = post-emergence, Postemergence, 2000 g ai/ha, 0 to 100 scale, 0 no effect, 100 complete control, read-out: Plant response rating, Morningglory
# [14] = pre-emergence, Preemergence, 500 g ai/ha, visual rating, 0 to 100 scale (0 no effect, 100 complete control), read-out: Morningglory plant response rating
# [15] = pre-emergence, Preemergence, 2000 g ai/ha, 0 to 100 scale, 0 no effect, 100 complete control, read-out: Morningglory plant response rating
# [16] = Bassia scoparia, post-emergence, Postemergence, 250 g ai/ha, scale 0 to 100, 0 no effect, 100 complete control, read-out: Plant response rating, Kochia
# [17] = Bassia scoparia, post-emergence, postemergence, 125 g ai/ha, scale 0 to 100, read-out: Plant response rating, Kochia
# [18] = Bassia scoparia, post-emergence, postemergence, 62 g ai/ha, scale 0 to 100, read-out: Plant response rating, Kochia
# [19] = Preemergence, 500 g ai/ha, visual rating, 0 to 100 scale (0 no effect, 100 complete control)
# [20] = Postemergence, 500 g ai/ha, scale 0 to 100
# [21] = Preemergence, 2000 g ai/ha, 0 to 100 scale, 0 no effect, 100 complete control
# [22] = 125 g ai/ha, scale 0-100, preemergence
# [23] = Postemergence, 125 g ai/ha, scale 0 to 100, 0 no effect, 100 complete control
# [24] = 250 g ai/ha, scale 0 to 100 (0 no effect, 100 complete control), visual, 12 to 14 days, preemergence
SMILES,"Plant response rating, Kochia (kochia; [1])","Plant response rating, Kochia (kochia; [3])",Morningglory plant response rating (morningglory; [4]),"Plant response rating, Morningglory (morningglory; [5])",Morningglory plant response rating (morningglory; [6]),"Plant response rating, Kochia (kochia; [8])","Plant response rating, Kochia (kochia; [9])",Kochia plant response rating (kochia; [11]),"Plant response rating (0 = no effect, 100 = complete control), Kochia (kochia; 62 g ai/ha, preemergence)",Morningglory plant response rating (morningglory; [19]),Kochia plant response rating (kochia; [20]),further results
CCOC(=O)c1cccc(NC(=O)c2cc(C3(C)CC3)nn2CC)c1 [Compound 295],90,80,–,–,–,–,–,–,–,–,–,"Plant response rating, Kochia (kochia; [2]): 85; Plant response rating, Ryegrass, Italian (Italian ryegrass; [1]): 65; Plant response rating, Ryegrass, Italian (Italian ryegrass; [2]): 40; Plant response rating, Ryegrass, Italian (Italian ryegrass; [3]): 40"
CCN(CC)C(=O)c1cccc(NC(=O)c2sc(C(C)(C)C)nc2C)c1 [Compound 199],–,–,45,70,55,80,85,90,–,–,–,"Morningglory plant response rating (morningglory; [7]): 15; Plant response rating, Kochia (kochia; [10]): 90"
"CCOC(=O)c1cccc(NC(=O)c2cc(C(C)(C)C)nn2CC)c1 [Compound 80, ethyl 3-[[[3-(1,1-dimethylethyl)-1-ethyl-1H-pyrazol-5-yl]carbonyl]-amino]benzoate]",–,–,–,–,–,–,–,–,10,–,–,"pest or weed control at 500 g/ha (morningglory; [12]): 40%; pest or weed control at 2000 g/ha (morningglory; [13]): 50%; pest or weed control at 500 g/ha (morningglory; [14]): 15%; pest or weed control at 2000 g/ha (morningglory; [15]): 30%; pest or weed control at 250 g/ha (kochia; [16]): 100%; pest or weed control at 125 g/ha (kochia; [17]): 100%; pest or weed control at 62 g/ha (kochia; [18]): 100%; pest or weed control at 31 g/ha (kochia; Bassia scoparia, pre-emergence, 31 g ai/ha, preemergence, scale 0 to 100, read-out: Plant response rating, Kochia): 10%; pest or weed control at 125 g/ha (kochia; Bassia scoparia, pre-emergence, 125 g ai/ha, scale 0 (no effect) to 100 (complete control), visual, 12 to 14 days, read-out: Plant response rating, Kochia): 10%"
C#CCNC(=O)c1cccc(NC(=O)c2cc(C(C)(C)C)nn2CC)n1 [Compound 147],50,5,20,30,45,–,40,100,–,20,80,"Plant response rating, Kochia (kochia; [2]): 10"
CCN(CC)C(=O)c1ccnc(NC(=O)c2cc(C(C)(C)C)nn2CC)c1 [Compound 153],–,–,35,85,55,65,95,100,–,10,–,–
C=Cn1nc(C(C)(C)C)cc1C(=O)Nc1cccc(C(=O)N(CC)CC)c1 [Compound 34],90,80,–,20,–,–,–,100,90,35,90,"Plant response rating, Morningglory (morningglory; [4]): 10; Morningglory plant response rating (morningglory; [21]): 50; Plant response rating, Kochia (kochia; [22]): 90; Plant response rating, Kochia (kochia; [23]): 90"
"CCn1nc(C(C)(C)C)cc1C(=O)Nc1cccc(C(=O)OCCF)c1 [Compound 82, 2-fluoroethyl 3-[[[3-(1,1-dimethylethyl)-1-ethyl-1H-pyrazol-5-yl]-carbonyl]amino]benzoate]",–,–,–,–,–,–,–,–,–,–,70,pest or weed control at 500 g/ha (morningglory; [12]): 20%; pest or weed control at 2000 g/ha (morningglory; [13]): 10%; pest or weed control at 500 g/ha (morningglory; [14]): 0%; pest or weed control at 2000 g/ha (morningglory; [15]): 15%; pest or weed control at 250 g/ha (kochia; [16]): 50%; pest or weed control at 125 g/ha (kochia; [17]): 40%; pest or weed control at 62 g/ha (kochia; [18]): 10%
CCOC(=O)c1cc(NC(=O)c2cc(C(C)(C)C)nn2CC)ccc1OCC [Compound 95],–,–,10,15,–,–,100,–,100,30,–,"Morningglory plant response rating (morningglory; [21]): 55; Plant response rating, Kochia (kochia; 31 g ai/ha, preemergence, scale 0 to 100): 80"
CCNC(=O)c1cccc(NC(=O)c2cc(C(C)(C)C)nn2CC(F)(F)F)c1 [Compound 31],70,70,–,–,–,–,–,100,0,–,70,"Morningglory plant response rating (morningglory; Postemergence, 250 g ai/ha, 0 to 100 scale, 0 no effect, 100 complete control): 5; Plant response rating, Morningglory (morningglory; Postemergence, 1000 g ai/ha, 0 to 100 scale, 0 no effect, 100 complete control): 20; Morningglory plant response rating (morningglory; Preemergence, 1000 g ai/ha, visual rating, 0 to 100 scale (0 no effect, 100 complete control)): 55; Morningglory plant response rating (morningglory; preemergence, 250 g ai/ha, visual injury, 0 to 100 scale (0 no effect, 100 complete control)): 0; Plant response rating, Kochia (kochia; [22]): 80; Plant response rating, Kochia (kochia; [24]): 100; Plant response rating, Kochia (kochia; [23]): 70"
CCn1nc(C(C)(C)C)cc1C(=O)Nc1cccc(C(=O)NCC(C)C)c1 [Compound 61],–,–,–,20,–,–,100,100,10,20,–,"Plant response rating, Morningglory (morningglory; [4]): 10; Morningglory plant response rating (morningglory; [21]): 50; Plant response rating, Kochia (kochia; [24]): 100"
CCNC(=O)c1ccc(F)c(NC(=O)c2cc(C3(C)CC3)nn2CC)c1 [Compound 300],–,–,80,95,100,60,100,–,–,–,–,"Morningglory plant response rating (morningglory; [7]): 90; Plant response rating, Kochia (kochia; [10]): 100"
CCNC(=O)c1ccc(F)c(NC(=O)C2CC(C(C)(C)C)=NN2CC)c1 (racemic) [Compound 269],–,–,20,35,30,70,100,–,–,–,–,"Morningglory plant response rating (morningglory; [7]): 20; Plant response rating, Kochia (kochia; [10]): 100; Plant response rating, Kochia (kochia; 500 g ai/ha, scale 0 to 100 (0 no effect, 100 complete control), visual, 12 to 14 days, preemergence): 100"
CCn1nc(C(C)(C)C)cc1C(=O)Nc1cccc(OS(=O)(=O)CC)c1 [Compound 408],–,–,–,–,–,–,–,–,–,–,–,"Plant response rating, Ryegrass, Italian (Italian ryegrass; Postemergence, 500 g ai/ha, scale 0 to 100, 0 no effect, 100 complete control): 70; Plant response rating, Ryegrass, Italian (Italian ryegrass; [2]): 45; Plant response rating, Ryegrass, Italian (Italian ryegrass; [3]): 40"
